Measured values reported in patent publication US10034880B2, “Ophthalmic suspension formulation” (Sumitomo Dainippon Pharma Co., Ltd., priority 2014, dated 2018).
Entries after “also recorded” stand apart in the source; their conditions may differ. Where two headings read alike, the source gives them in different places.

Assays:
[1] = Evaluation of transferability to posterior eye segment in rats (I-1) and (I-2); format: in vivo; conditions: SDT, rat, oral repetitive administration 1.0 mg/kg once a day for 21 days, 60 minutes after final administration
Method: To both eyes of rat model of diabetes, ophthalmic suspension formulation A1 wherein Compound A was suspended in a generally-tolerated dose as a suspension formulation (200 mg/mL) or ophthalmic solution formulation Z wherein Compound A was dissolved (400 μg/mL) was administered in eyedrops in the amount of 5 μL for one eye (which is a maximum tolerated dose for eyedrops in rats) totally 5 times at intervals of 5 minutes. 60 minutes after the administration, each concentration of Compound A in cornea, retina and plasma was measured.
Eyedrop has a limitation about tolerated volume of one shot, which is different from other dosage forms. Thus, the delivery amount of the drug to the target tissue which is obtained from eyedrop of a maximum tolerated dose is important. The tolerated volume varies depending on animal species, and the maximum volume in rats is 5 μL for one eye. […]
In addition, Diabetic Retinopathy, INTECH, Chapter 15 “Prophylactic Medical Treatment of Diabetic Retinopathy”, Akihiro Kakehashi et al. disclose an experiment of oral repetitive administration of Compound A to SDT rats, wherein the dose of Compound A making the retinal capillary weakened and the VEGF production in retina inhibited is 1.0 mg/kg. […] 60 minutes after the final administration, each concentration of Compound A in cornea, retina and plasma was measured.

[2] = test system: normal human retinal capillary endothelial cell (HREC); assay: Cell migration assay: inhibition of facilitatory action of cell migration by VEGF stimulation; format: cell-based
Method: The anti-VEGF action of Compound A was evaluated by an experimental method (cell migration assay) described in J Diabetes Complications. 2012; 26(5):369-77. In the experiment, a normal human retinal capillary endothelial cell (HREC) which was obtained from Cell System Co., LTD. was used, and a cell culture used herein was CS-C medium (Cell System Co., LTD.). […] As for Lucentis, its formulation stock solution was diluted with the cell culture, wherein the dilution ratio was 50 μL of the formulation stock solution per 4 mL of the cell culture, and the diluted solution was used in the experiment. The HREC was seeded in 6-well plate, and it was incubated until the confluency became 80-90%. 20-24 hours before assaying the cell migration by the VEGF stimulation, the cell culture was changed to a cell culture containing 0.1% fetal bovine serum. Then, the culture cell monolayer was wounded with a 200 μL pipette tip at one point per well, and the width of the wounds were measured with a microscope. […] About 18 hours after changing the cell culture, each width of the wounds was measured with a microscope, and the anti-VEGF action was evaluated by comparing the width with that of the just-wounded one.

aldose reductase = aldose reductase (Homo sapiens, UniProt P15121); assay: AR inhibitory action; format: biochemical
[3] = test system: VEGF production in retina; conditions: oral repetitive administration, SDT rats; cited from earlier work
[4] = Evaluation of transferability to posterior eye segment in rats (V); format: in vivo, SD rats; conditions: ophthalmic suspension formulations, eyedrops 5 μL for one eye once; 60 minutes after administration
Method: To both eyes of SD rats, ophthalmic formulation I, ophthalmic formulation F, ophthalmic formulation G, ophthalmic formulation X1, ophthalmic formulation X2, ophthalmic formulation Y1, or ophthalmic formulation Y2 was administered in eyedrops in the amount of 5 μL for one eye once. 60 minutes after the administration, each concentration of Compound A in retina was measured.

With `O=C1C[C@@]2(C(=O)N1)C(=O)N(Cc1ccc(Br)cc1F)C(=O)c1cccn12` [Compound A, (R)-(−)-2-(4-bromo-2-fluorobenzyl)-1,2,3,4-tetrahydropyrrolo[1,2-a]pyrazine-4-spiro-3′-pyrrolidine-1,2′,3,5′-tetrone] as the molecule, how does the Kp at 60 min ([1]; cornea and plasma (cornea/plasma ratio), read-out: concentration ratio cornea to plasma (plasma:cornea:retina, plasma = 1)) read?
Its Kp at 60 min is about 1.

What about the Kp at 60 min ([1]; retina and plasma (retina/plasma ratio), po, 1 mg/kg, read-out: retina/plasma ratio) of the same molecule?
The Kp at 60 min was about 1.

And the “action inhibiting the HREC migration, comparison” value ([2]; 1 nM Compound A, VEGF stimulation, about 18 hours)?
Its value is “in the same level as that of 100 nM ((28 ng/mL)/L) Compound C; also recorded: more potent than that of 1000 nM ((320 ng/mL)/L) Compound B; also recorded: in the same level as Lucentis”.

What about the Ki (aldose reductase) of the same molecule?
The Ki was 0.23 nM.

And the “AR inhibitory action, action ratio relative to Compound A” value (aldose reductase; figure in brackets)?
The value was 1.0 ×.

What about the “oral dose making the retinal capillary weakened and the VEGF production in retina inhibited” value [3] of the same molecule?
The value was 1.0 mg/kg.

What about the delivery to retina [4] of the same molecule?
Its delivery to retina is “delivered to retina much more than the ophthalmic suspension formulation comprising Compound B or C”.

Which delivery to retina [4] does the source give for `CC(/C=C1\SC(=S)N(CC(=O)O)C1=O)=C\c1ccccc1` [Compound B, [5-[(1Z,2E)-2-methyl-3-phenylallylidene]-4-oxo-2-thioxothiazolidin-3-yl]acetic acid] here?
Its delivery to retina is “hardly delivered to retina”.

For `NC(=O)[C@@H]1C[C@]2(NC(=O)NC2=O)c2cc(F)ccc2O1` [Compound C, (2S,4S)-6-fluoro-2′,5′-dioxospiro[chroman-4,4′-imidazolidine]-2-carboxamide], which delivery to retina [4] is on record?
The delivery to retina was “hardly delivered to retina”.

B1: Lucentis: anti-VEGF antibody formulation (general name: ranibizumab) (antibody, chains of the INN, looked up, V domains shown)
VH: EVQLVESGGGLVQPGGSLRLSCAASGYDFTHYGMNWVRQAPGKGLEWVGWINTYTGEPTYAADFKRRFTFSLDTSKSTAYLQMNSLRAEDTAVYYCAKYPYYYGTSHWYFDVWGQGTLVTVSS
VL: DIQLTQSPSSLSASVGDRVTITCSASQDISNYLNWYQQKPGKAPKVLIYFTSSLHSGVPSRFSGSGSGTDFTLTISSLQPEDFATYYCQQYSTVPWTFGQGTKVEIK
For B1, which “inhibition of HREC migration facilitated by VEGF stimulation” value ([2]; about 18 hours after changing the cell culture) is on record?
Its value is “inhibited the migration”.
